Test system: chimeric human/mouse MHC class II molecules
Assay type: binding

## influenza nucleoprotein (383-395): DR-restricted synthetic peptide (SRYWAIRTRSGGN)
  binding to chimeric MHC class II molecules: Specific binding was also observed

From article PMC2191575 (The Journal of Experimental Medicine, 1994)
